From PubChem BioAssay (NCI) come the findings set out here.

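Where inhibition never reached the appropriate level, the endpoint shown equals the highest concentration tested. Otherwise, values were interpolated linearly from a five-concentration, 48-hour dose response in 96-well plates. TGI: total growth inhibition.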

In the first experiment the test system is M14 melanoma. The experiment is described as follows: NCI-60 cell line screen, 48 h.
Turning to `O=C1NCCN1/N=C/c1c(Cl)n(-c2ccccc2)c2ccccc12`, the TGI is 36.8 µM.
Same read-out and setting: the result for `Cc1ccc(S(=O)(=O)N/N=C/C2(c3ccccc3)c3ccccc3-c3ccccc32)cc1` reads 23.3 µM; that for `O=C(/C=C/c1ccc2c(c1)OCO2)CC(=O)C(=O)c1c[nH]c2ccccc12`, > 100 µM.
On the same count and under the same terms, the result for `Cc1cc(O)c(/C=N/C(=S)NCc2ccccc2)c(=O)o1` reads > 100 µM.

Another experiment concerns HS 578T breast. As to the kind of experiment: NCI-60 cell line screen, 48 h.
For the molecule `O=C1NCCN1/N=C/c1c(Cl)n(-c2ccccc2)c2ccccc12`, the TGI was 43.8 µM.
Take `Cc1ccc(S(=O)(=O)N/N=C/C2(c3ccccc3)c3ccccc3-c3ccccc32)cc1`: the TGI was found to be 39.3 µM.
In turn, `O=C(/C=C/c1ccc2c(c1)OCO2)CC(=O)C(=O)c1c[nH]c2ccccc12` yielded a TGI of 68.1 µM.
In the case of `Cc1cc(O)c(/C=N/C(=S)NCc2ccccc2)c(=O)o1`, the TGI was > 100 µM.

The next experiment concerns OVCAR-5 ovarian. The experiment is described as follows: NCI-60 cell line screen, 48 h.
Turning to `O=C1NCCN1/N=C/c1c(Cl)n(-c2ccccc2)c2ccccc12`, the TGI was > 100 µM.
`Cc1ccc(S(=O)(=O)N/N=C/C2(c3ccccc3)c3ccccc3-c3ccccc32)cc1` registered a TGI of 25.1 µM.
For the molecule `O=C(/C=C/c1ccc2c(c1)OCO2)CC(=O)C(=O)c1c[nH]c2ccccc12`, the TGI is > 100 µM.
For `Cc1cc(O)c(/C=N/C(=S)NCc2ccccc2)c(=O)o1`, the TGI was > 100 µM.

A further experiment deals with MOLT-4 leukemia. The experiment is described as follows: NCI-60 cell line screen, 48 h.
In the case of `O=C1NCCN1/N=C/c1c(Cl)n(-c2ccccc2)c2ccccc12`, the TGI is > 100 µM.
As for `Cc1ccc(S(=O)(=O)N/N=C/C2(c3ccccc3)c3ccccc3-c3ccccc32)cc1`, the TGI was > 100 µM.
As for `O=C(/C=C/c1ccc2c(c1)OCO2)CC(=O)C(=O)c1c[nH]c2ccccc12`, the TGI is > 100 µM.
On the same count and under the same terms, the result for `Cc1cc(O)c(/C=N/C(=S)NCc2ccccc2)c(=O)o1` reads > 100 µM.

The test system of a further experiment is HL-60(TB) leukemia. The experiment is described as follows: NCI-60 cell line screen, 48 h.
Regarding `O=C1NCCN1/N=C/c1c(Cl)n(-c2ccccc2)c2ccccc12`, the TGI is > 100 µM.
As for `Cc1ccc(S(=O)(=O)N/N=C/C2(c3ccccc3)c3ccccc3-c3ccccc32)cc1`, the TGI is > 100 µM.
As for `O=C(/C=C/c1ccc2c(c1)OCO2)CC(=O)C(=O)c1c[nH]c2ccccc12`, the TGI is > 100 µM.
For the molecule `Cc1cc(O)c(/C=N/C(=S)NCc2ccccc2)c(=O)o1`, the TGI is > 100 µM.

A further experiment relates to SF-295 CNS. As to the kind of experiment: NCI-60 cell line screen, 48 h.
For the molecule `O=C1NCCN1/N=C/c1c(Cl)n(-c2ccccc2)c2ccccc12`, the TGI was > 100 µM.
`Cc1ccc(S(=O)(=O)N/N=C/C2(c3ccccc3)c3ccccc3-c3ccccc32)cc1` came in with a TGI of 16.1 µM.
Still for that read-out and setting: the result for `O=C(/C=C/c1ccc2c(c1)OCO2)CC(=O)C(=O)c1c[nH]c2ccccc12` reads > 100 µM.
Still for that read-out and setting: the figure for `Cc1cc(O)c(/C=N/C(=S)NCc2ccccc2)c(=O)o1` is > 100 µM.

Another experiment has as its system BT-549 breast. The experiment is described as follows: NCI-60 cell line screen, 48 h.
In the case of `O=C1NCCN1/N=C/c1c(Cl)n(-c2ccccc2)c2ccccc12`, the TGI came out at 35.9 µM.
The same measure, in the same setting: the figure for `Cc1ccc(S(=O)(=O)N/N=C/C2(c3ccccc3)c3ccccc3-c3ccccc32)cc1` is 27.7 µM; for `O=C(/C=C/c1ccc2c(c1)OCO2)CC(=O)C(=O)c1c[nH]c2ccccc12` it is > 100 µM.
On to `Cc1cc(O)c(/C=N/C(=S)NCc2ccccc2)c(=O)o1`, for which the TGI was > 100 µM.

A further experiment concerns MDA-MB-435. The experiment is described as follows: NCI-60 cell line screen, 48 h.
For `O=C1NCCN1/N=C/c1c(Cl)n(-c2ccccc2)c2ccccc12`, the TGI was determined as 33.1 µM.
Turning to `Cc1ccc(S(=O)(=O)N/N=C/C2(c3ccccc3)c3ccccc3-c3ccccc32)cc1`, the TGI came to 24.4 µM.
`O=C(/C=C/c1ccc2c(c1)OCO2)CC(=O)C(=O)c1c[nH]c2ccccc12` registered a TGI of 68.5 µM.
For the molecule `Cc1cc(O)c(/C=N/C(=S)NCc2ccccc2)c(=O)o1`, the TGI is > 100 µM.

The subject of a further experiment is SF-268 CNS. The experiment is described as follows: NCI-60 cell line screen, 48 h.
`O=C1NCCN1/N=C/c1c(Cl)n(-c2ccccc2)c2ccccc12` had a TGI of 59 µM.
Molecule `Cc1ccc(S(=O)(=O)N/N=C/C2(c3ccccc3)c3ccccc3-c3ccccc32)cc1` gave a TGI of 52.7 µM.
`O=C(/C=C/c1ccc2c(c1)OCO2)CC(=O)C(=O)c1c[nH]c2ccccc12`: the TGI is > 100 µM.
For `Cc1cc(O)c(/C=N/C(=S)NCc2ccccc2)c(=O)o1`, the TGI is > 100 µM.

The test system of the next experiment is SW-620 colon. The experiment is described as follows: NCI-60 cell line screen, 48 h.
Molecule `O=C1NCCN1/N=C/c1c(Cl)n(-c2ccccc2)c2ccccc12` returned a TGI of 53.4 µM.
Still for that read-out and setting: the figure for `Cc1ccc(S(=O)(=O)N/N=C/C2(c3ccccc3)c3ccccc3-c3ccccc32)cc1` is 31 µM; for `O=C(/C=C/c1ccc2c(c1)OCO2)CC(=O)C(=O)c1c[nH]c2ccccc12` it is > 100 µM; for `Cc1cc(O)c(/C=N/C(=S)NCc2ccccc2)c(=O)o1` it is > 100 µM.

The next experiment has as its system K-562 leukemia. The experiment is described as follows: NCI-60 cell line screen, 48 h.
`O=C1NCCN1/N=C/c1c(Cl)n(-c2ccccc2)c2ccccc12` displayed a TGI of 68.1 µM.
On to `Cc1ccc(S(=O)(=O)N/N=C/C2(c3ccccc3)c3ccccc3-c3ccccc32)cc1`, for which the TGI is > 100 µM.
For `O=C(/C=C/c1ccc2c(c1)OCO2)CC(=O)C(=O)c1c[nH]c2ccccc12`, the TGI turned out to be 84.6 µM.

A further experiment deals with SK-MEL-28 melanoma. The experiment is described as follows: NCI-60 cell line screen, 48 h.
`Cc1ccc(S(=O)(=O)N/N=C/C2(c3ccccc3)c3ccccc3-c3ccccc32)cc1` gave a TGI of 28.6 µM.
Consider `O=C(/C=C/c1ccc2c(c1)OCO2)CC(=O)C(=O)c1c[nH]c2ccccc12`, for which the TGI is > 100 µM.
For the molecule `Cc1cc(O)c(/C=N/C(=S)NCc2ccccc2)c(=O)o1`, the TGI is > 100 µM.

A further experiment relates to NCI-H226 lung. The experiment is described as follows: NCI-60 cell line screen, 48 h.
Molecule `O=C1NCCN1/N=C/c1c(Cl)n(-c2ccccc2)c2ccccc12` showed a TGI of 54 µM.
On to `Cc1ccc(S(=O)(=O)N/N=C/C2(c3ccccc3)c3ccccc3-c3ccccc32)cc1`, for which the TGI turned out to be 34.1 µM.
For `Cc1cc(O)c(/C=N/C(=S)NCc2ccccc2)c(=O)o1`, the TGI is > 100 µM.

The next experiment relates to RPMI-8226 leukemia. As to the kind of experiment: NCI-60 cell line screen, 48 h.
As for `O=C1NCCN1/N=C/c1c(Cl)n(-c2ccccc2)c2ccccc12`, the TGI was 52.8 µM.
Regarding `Cc1ccc(S(=O)(=O)N/N=C/C2(c3ccccc3)c3ccccc3-c3ccccc32)cc1`, the TGI is 87.2 µM.
Same read-out and setting: the figure for `O=C(/C=C/c1ccc2c(c1)OCO2)CC(=O)C(=O)c1c[nH]c2ccccc12` is > 100 µM.

A further experiment has as its system MDA-N. As to the kind of experiment: NCI-60 cell line screen, 48 h.
The molecule `O=C1NCCN1/N=C/c1c(Cl)n(-c2ccccc2)c2ccccc12` showed a TGI of 21.6 µM.
`Cc1ccc(S(=O)(=O)N/N=C/C2(c3ccccc3)c3ccccc3-c3ccccc32)cc1` came in with a TGI of 14.9 µM.
For `O=C(/C=C/c1ccc2c(c1)OCO2)CC(=O)C(=O)c1c[nH]c2ccccc12`, the TGI came to 91.3 µM.
On to `Cc1cc(O)c(/C=N/C(=S)NCc2ccccc2)c(=O)o1`, for which the TGI was > 100 µM.

For the next experiment, the system named is T-47D breast. As to the kind of experiment: NCI-60 cell line screen, 48 h.
Molecule `O=C1NCCN1/N=C/c1c(Cl)n(-c2ccccc2)c2ccccc12` returned a TGI of 41 µM.
